Key:
primary rat hepatocytes [1] = test: Hepatocyte morphology / cell spreading (scanning electron micrographs); assay type: cell-based; conditions: 24 hours
Source text: PKA inhibition also had surprising effects on cell morphology. It has been proposed that malleable substrates such as collagen gel are unable to promote cell spreading because it lacks sufficient mechanical strength to resist contractile forces applied by the cell to its adhesion sites.

primary rat hepatocytes [2] = test: Urea production in hepatocytes on collagen gel; assay type: cell-based; conditions: with PKA inhibition (FIG. 4C: with or without H89)
Procedure: (§1) FIG. 4. Effects of PKA inhibition on hepatocyte proliferation and differentiation. […] Medium was replaced at 96 hr and collected for analysis at 120 hr. Albumin secretion was determined by ELISA.
(§2) Albumin is a protein synthesized and secreted by hepatocytes and this assay is routinely used as a marker of differentiated function. […] Urea production is also maintained on collagen gel in the presence of PKA inhibition (FIG. 4C).

p42/44 ERKs = test: Phosphorylation of p42/44 ERKs by Western blot; assay type: cell-based, rat; conditions: hepatocytes on collagen gel for 50 hr, with H89
Procedure: (§3) FIG. 2. Effects of PKA inhibition on morphology and cell cycle progression on collagen gel. (A) PKA activity was assessed in hepatocytes cultured on gel or film. In vitro kinase assay was performed; DPM=total ^32P-incorporation, minus counts from sample without substrate. […] [^3H]Thymidine incorporation was assessed from 48-96 hr. (C) Phosphorylation of p42/44 ERKs was determined in hepatocytes cultured on collagen gel for 50 hr by Western blot using a phospho-specific p42/44 antibody (NEB). […] EGF receptor (EGFr) was immunoprecipitated, followed by Western blot analysis of phospho-tyrosine (P-Tyr) or total EGFr.
To determine if ERK activation occurs on both collagen substrates (film and gel), phosphorylation of ERKs was measured using Western blot analysis and antibodies against the phosphorylated form of ERK 1/2 (New England Biolabs). […] Once plated onto collagen film, ERK phosphorylation persisted and increased slightly over the first 2 hours in culture, then gradually diminished out to 24 hours. A second peak of phosphorylation was observed by 48 hours, just prior to entry into S phase. Both peaks of phosphorylation correlated with increased ERK kinase activity as determined by in vitro kinase assays. In contrast, the initial phosphorylation subsides more rapidly in cells on collagen gel and the second peak of ERK phosphorylation was absent. […]

primary rat hepatocytes [3] = test: Cell counting 96 hr after plating on collagen gel (hemocytometer); assay type: cell-based; conditions: H89 3 μM
Procedure: as §1
While growth on collagen films was also high, hepatocytes quickly become de-differentiated on collagen films.
Proliferation: Hepatocytes cultured on 35 mm dishes will be removed from plates using a combination of trypsin, collagenase, and DNAse at various times after plating. Cells are counted using a Coulter counter and hemocytometer. A cell count at 24 hour is also determined to assess the initial number of viable, attached cells. Plates are run in triplicate.

primary rat hepatocytes [4] = test: DNA synthesis, [3H]thymidine incorporation in hepatocytes on collagen film or gel; assay type: cell-based
Procedure: as §3
Once it was confirmed that PKA activity was higher in cells cultured on gel, PKA activity was modified to assess its role in cell cycle progression.
DNA Synthesis: DNA synthesis will be measured using [^3H]-thymidine incorporation in substrate-coated 96-well plates, as previously described (Hansen 1999). DPMs will be normalized to cell number assessed in parallel plates using the CyQuant Assay (Molecular Probes).
Hepatocyte Culture: Cells are obtained by collagenase perfusion of adult Lewis rat liver (Aiken 1990), followed by purification through a Percoll gradient (Sigma, St. Louis, Mo.). Hepatocytes will be plated (12,000 cells/cm^2) in serum-free William's medium E with defined additives including EGF (10 ng/ml, Collaborative Research, Bedford, Mass.) and insulin (20 mU/ml, Sigma) (Hansen 1994).

hepatocytes [5] = test: Dot blot of albumin secretion, 72 hour media samples; assay type: cell-based, rat
Procedure: FIG. 6. Dot blot of albumin secretion—72 hour media samples.
The observed enhanced cell number was accompanied by NO change in albumin secretion, which is a standard measure of differentiated function. […] It also compares it to a thin film of type I collagen on which hepatocytes may proliferate but also lose differentiated function. Inhibition of PKA has little effect on DNA synthesis, cell counts, or albumin secretion in hepatocytes cultured on film.

primary rat hepatocytes [6] = test: Albumin secretion by ELISA (differentiated function); assay type: cell-based; conditions: collagen gel; text: after 48 hours in culture; H89 3 μM
Procedure: FIG. 4. Effects of PKA inhibition on hepatocyte proliferation and differentiation. […] Albumin secretion was determined by ELISA.
as §2

hepatocytes [7] = test: Cell counts after pulsed PKA inhibition, Example 6 (hemocytometer, Coulter counter); assay type: cell-based, rat
Procedure: Coating: 60 mm plates were coated with film or 5× gel, as described above, with 4 replicates per condition. […] Culture: The cells were cultured as described above, changing media in all plates at 72 hrs, and again at 96 hrs (day 4). […] Harvest: Gel—media was removed from plates. Five mL collagenase (approx. 1 mg/ml) in PBS was added to plates and incubated for 20 minutes at 37° C. Three mL trypsin-EDTA was added directly to collagenase solution and incubated another 15 minutes at 37° C. Media was removed with a pipette and plate was washed several times with the media, before the media was collected into a 15 mL tube. Tubes were centrifuged at 1000 rpm for 10 minutes at 4° C. Supernatant was removed and pellets from each of the four replicates were resuspended in 1 mL fresh media. Tube was weighed for end volume and equalized to 1 ml later. Film—Media was removed from plates. Trypsin-EDTA was added to dishes (3 ml/dish) and dishes were incubated at 37° C. for 15 minutes. Procedure was repeated. Samples were snap frozen in ethanol at −70° C. before thawing and counting. Counting: Hemocytometer—100 μL sample was added to 900 μL trypan blue in PBS […]. Cells were counted. Repeated procedure seven times for eight total counts per sample. Coulter Counter—Added 250 μL sample to 20 mL PBS in small Coulter vessel. Counted with predetermined pre-sets, collecting 1 mL of 20 mL sample and recording result. Repeated procedure seven times for eight total counts per sample. It should be noted that the inventors also determined that a pulse of PKA inhibitor is preferable to a constant exposure to PKA. If the PKA inhibitor is left on for the entire culture period, there is no enhanced cell number, presumably due to the requirement of PKA in later stages of the cell cycle. Thus, the methodology differs slightly from our initial report in which we simply stated the inhibitor is added to the culture. In the present experiments, the inventors exposed the cells to the inhibitor on for the first 72 hours, removed it for the next 24 hours, and then added it back again.

[8] = test system: protein kinase inhibitory peptide, PKI

For `Nc1ncnc2c1nc(Br)n2[C@@H]1O[C@@H]2COP(=O)(O)O[C@H]2[C@H]1O` [8-Br-cAMP], the “cell spreading on collagen film” value (primary rat hepatocytes [1]; collagen film) was “significantly inhibits cell spreading”.
In the case of `O=S(=O)(NCCNC/C=C/c1ccc(Br)cc1)c1cccc2cnccc12` [H89, N-[2-((p-bromocinnamyl)amino)ethyl]-5-isoquinolinesulfonamide], the urea production (primary rat hepatocytes [2]) is reported as “maintained”, the ERK phosphorylation (p42/44 ERKs) is reported as “significantly enhanced” and the “increase in cell number compared to DMSO controls” value (primary rat hepatocytes [3]) is reported as 67%. The “DNA synthesis on collagen gel” value (primary rat hepatocytes [4]; H89 2 μM vs DMSO, collagen gel, [3H]thymidine incorporation 48-96 hr) was “significantly increased”, the “DNA synthesis on collagen film” value (primary rat hepatocytes [4]; H89 2 μM vs DMSO, film-plated cells, 48-96 hr) was “little effect” and the “DNA synthesis in hepatocytes cultured on film” value (primary rat hepatocytes [4]; collagen film, Example 6 discussion) was “little effect”. For the same compound, the “albumin secretion in hepatocytes cultured on film” value (hepatocytes [5]; collagen film) was “little effect”, the “albumin secretion (dot blot, not quantitated)” value (hepatocytes [5]; collagen gel cultures with or without H89, 72 hours) was “NO change” and the “albumin secretion compared to DMSO controls” value (primary rat hepatocytes [6]) was “not reduced”. For the same compound, the “cell spreading on collagen gel” value (primary rat hepatocytes [1]; collagen gel) was “significant spreading”, the “cell counts in hepatocytes cultured on film” value (hepatocytes [7]; collagen film) was “little effect” and the “higher cell number with PKA inhibition” value (hepatocytes [7]; type I collagen gel, eight days in culture, 3.3 μM H89 pulsed) was 15-20%. The “average increase in cell number, five experiments” value (hepatocytes [7]; type I collagen gel, eight days, 3.3 μM H89 pulsed, p-value=0.0004) was 16%±3.3% and the “cell number at four days” value (hepatocytes [7]; type I collagen gel, representative experiment (FIG. 5A)) was “no change in cell number”.
In the case of `N#CC(=C(/N)Sc1ccccc1N)/C(C#N)=C(\N)Sc1ccccc1N` [U0126], the “DNA synthesis, MEK1 inhibition during early G1” value (primary rat hepatocytes [4]; inhibitor applied during early G1) is reported as “does not” and the “DNA synthesis, MEK1 inhibition during late G1” value (primary rat hepatocytes [4]; inhibitor applied during late G1) is reported as “inhibits DNA synthesis”.
In the case of protein kinase A (PKA), the “[^32P] incorporation in the in vitro PKA kinase assay” value [8] is reported as “the protein kinase inhibitory peptide, PKI, specifically inhibits [^32P] incorporation”.
